Data as given in patent US20240139167A1, “LYSOSOME-ASSOCIATED MEMBRANE PROTEIN TARGETING COMPOUNDS AND USES THEREOF” (HADASIT MEDICAL RESEARCH SERVICES AND DEVELOPMENT LTD., priority 2021, published 2024).

Key:
[1] = tested on: APBD cells; experiment: Proteomics (nano LC-MS/MS, LFQ); assay type: cell-based, human
Protocol: Sample preparation for MS analysis. Cell lysates in RIPA buffer containing protease inhibitors were clarified by centrifugation and […] of protein was used for protein precipitation by the chloroform/methanol method. The precipitated proteins were solubilized in 100 μl of 8 M urea, 10 mM DTT, 25 mM Tris-HCl pH 8.0 and incubated for 30 min at 22 ° C. Iodoacetamide (55 mM) was added, and samples were incubated for 30 min (22 ° C., in the dark), followed by addition of DTT (10 mM). Fifty μl of the samples was transferred into a new tube, diluted by the addition of 7 volumes of 25 mM Tris-HCl pH 8.0 and sequencing-grade modified Trypsin (Promega Corp., Madison, WI) was added (0.35 μg/sample) followed by incubation overnight at 37° C. with gentle agitation. The samples were acidified by addition of 0.2% formic acid and desalted on C18 home-made Stage tips. Peptide concentration was determined by Absorbance at 280 nm and 0.75 μg of peptides were injected into the mass spectrometer.
Nano LC-MS/MS analysis. MS analysis was performed using a Q Exactive-HF mass spectrometer (Thermo Fisher Scientific, Waltham, MA USA) coupled on-line to a nanoflow UHPLC instrument, Ultimate 3000 Dionex (Thermo Fisher Scientific, Waltham, MA USA). Peptides dissolved in 0.1% formic acid were separated without a trap column over a 120 min acetonitrile gradient run at a flow rate of 0.3 μl/min on a reverse phase 25-cm-long C18 column (75 μm ID, 2 μm, 100 Å, Thermo PepMapRSLC). The instrument settings were as previously described. Survey scans (300-1,650 m/z, target value 3E6 charges, maximum ion injection time 20 ms) were acquired and followed by higher energy collisional dissociation (HCD)-based fragmentation (normalized collision energy 27). A resolution of 60,000 was used for survey scans and up to 15 dynamically chosen most abundant precursor ions, with “peptide preferable” profile were fragmented (isolation window 1.6 m/z). The MS/MS scans were acquired at a resolution of 15,000 (target value 1E5 charges, maximum ion injection times 25 ms). Dynamic exclusion was 20 sec. Data were acquired using Xcalibur software (Thermo Scientific). To avoid a carryover, the column was washed with 80% acetonitrile, 0.1% formic acid for 25 min between samples.
MS data analysis. Mass spectra data were processed using the MaxQuant computational platform, version 1.6.14.0. Peak lists were searched against the Uniprot human FASTA sequence database from May 19, 2020, containing 49,974 entries. […] Relative protein quantification in MaxQuant was performed using the label-free quantification (LFQ) algorithm. […]
To validate the imaging-based analysis of the cell features modulated by the diseased state and by Compound 1, the inventors analyzed the effect of the disease and the treatment on protein expression. […]

[2] = tested on: HC and PD patient fibroblasts; experiment: Seahorse ATP rate assay in Pompe disease fibroblasts; assay type: cell-based, human
Protocol: FIG. 17 includes a vertical bar graph showing glycolytic (1) and mitochondrial (2) ATP production determined by Agilent's Seahorse machine and ATP rate assay kit. HC and PD patient fibroblasts were serum/glucose-starved for 48 h and then full medium was replenished for 24 h without (untreated), or with (chronic) 50 μM 144DG11. Acute, 50 μM 144DG11 was added on assay for 20 min after 24 h of serum/glucose replenishment. Readings were normalized to cell number as determined by Crystal Violet staining. Shown are mean and SD values based on n=6 repeats. In acutely 144DG11-treated PD fibroblasts, glycolytic and total ATP production was increased, as compared to untreated PD cells (p<0.002, One Way ANOVA with Sidak's post-hoc correction for multiple comparisons).

[3] = tested on: microglia cells from brains of 5XFAD mice; experiment: LC3, p62 and PAS staining of microglia from AD model; assay type: cell-based; settings: 50 μM, 24 h
Protocol: FIGS. 19A-19B include fluorescent micrographs showing microglia cells which were isolated from the brains of AD modeling 5XFAD mice by CD11b magnetic beads. Microglia were then incubated for 24 h with (treated), or without (untreated) 50 μM 144DG11, fixed and stained for the autophagic substrates LC3 (19A) and p62 (19B) and for glycogen by PAS, all as indicated. Reduction in the levels of both LC3 and p62 indicate induction of autophagy which degrades these substrates.
Being the most pro-inflammatory tissue in the brain, microglia are currently at the epicenter of innovative therapeutic research for AD. Moreover, as neuroinflammation is now accepted as the main pathogenic factor in AD and as activation of microglia autophagy and mitophagy is a leading therapeutic strategy (see, for instance, Eshraghi et al., (2021)), 144DG11 holds promise as a potential AD therapeutic.

COCCN(Cc1sccc1C)C(=O)c1cc(C)nc(O)c1 [Compound 1]
number of proteins down-modulated by APBD and up-modulated by compound [1]: 49 | number of proteins up-modulated by APBD and down-modulated by compound [1]: 39 | share of all proteins modified ([1]; glycogen overladen (48 h starvation/24 h Gluc)): 1.3% | share of all proteins modified ([1]; starved (48 h starvation)): 1.7% | effect on ATP production ([2]; 24 h pre-treatment): not significant | overall ATP production ([2]; PD fibroblasts, 50 μM): increased | relative contribution of glycolytic ATP production at the expense of mitochondrial (OxPhos) ATP production ([2]; PD fibroblasts, 50 μM): increased | glycolytic and total ATP production ([2]; PD fibroblasts, acute 50 μM 20 min, p<0.002): increased | glycogen levels [3]: did not lower glycogen levels | total LC3 and p62 [3]: decrease
